Test results reported in ChEMBL document CHEMBL2440076, “New triarylpyrazoles as broad-spectrum anticancer agents: design, synthesis, and biological evaluation” (Eur J Med Chem, 2013).

Legend:
Format in all cases: functional
UACC-257 = experiment: Growth inhibition of human UACC257 cells assessed as cell growth at 5X10'-8 M after 48 hrs by sulforhodamine B assay; details: UACC-257, 48 h, read-out: Activity
HCT-15 = experiment: Growth inhibition of human HCT15 cells assessed as cell growth at 5X10'-9 M after 48 hrs by sulforhodamine B assay; details: HCT-15, 48 h, read-out: Activity
LOX IMVI [1] = experiment: Growth inhibition of human LOXIMVI cells assessed as cell growth at 5X10'-8 M after 48 hrs by sulforhodamine B assay; details: read-out: Activity
COLO 205 = experiment: Growth inhibition of human COLO205 cells assessed as cell growth at 5X10'-8 M after 48 hrs by sulforhodamine B assay; details: COLO 205, 48 h, read-out: Activity
SW-620 [2] = experiment: Growth inhibition of human SW620 cells assessed as cell growth at 5X10'-9 M after 48 hrs by sulforhodamine B assay; details: SW-620, 48 h, read-out: Activity
A498 = experiment: Growth inhibition of human A498 cells assessed as cell growth at 5X10'-9 M after 48 hrs by sulforhodamine B assay; details: A498, 48 h, read-out: Activity
SK-MEL-5 = experiment: Growth inhibition of human SK-MEL-5 cells assessed as cell growth at 5X10'-9 M after 48 hrs by sulforhodamine B assay; details: SK-MEL-5, 48 h, read-out: Activity
LOX IMVI [3] = experiment: Growth inhibition of human LOXIMVI cells assessed as cell growth at 5X10'-7 M after 48 hrs by sulforhodamine B assay; details: read-out: Activity
RXF 393 = experiment: Growth inhibition of human RXF393 cells assessed as cell growth at 5X10'-8 M after 48 hrs by sulforhodamine B assay; details: RXF 393, 48 h, read-out: Activity
UO-31 [4] = experiment: Growth inhibition of human UO31 cells assessed as cell growth at 5X10'-7 M after 48 hrs by sulforhodamine B assay; details: UO-31, 48 h, read-out: Activity
MDA-MB-435 [5] = experiment: Growth inhibition of human MDA-MB-435 cells assessed as cell growth at 5X10'-9 M after 48 hrs by sulforhodamine B assay; details: MDA-MB-435, 48 h, read-out: Activity
UO-31 [6] = experiment: Growth inhibition of human UO31 cells assessed as cell growth at 5X10'-9 M after 48 hrs by sulforhodamine B assay; details: UO-31, 48 h, read-out: Activity
HCT-116 = experiment: Growth inhibition of human HCT116 cells assessed as cell growth at 5X10'-8 M after 48 hrs by sulforhodamine B assay; details: HCT-116, 48 h, read-out: Activity
MDA-MB-231 [7] = experiment: Growth inhibition of human MDA-MB-231 cells assessed as cell growth at 5X10'-9 M after 48 hrs by sulforhodamine B assay; details: MDA-MB-231, 48 h, read-out: Activity
IGROV-1 = experiment: Growth inhibition of human IGROV1 cells assessed as cell growth at 5X10'-7 M after 48 hrs by sulforhodamine B assay; details: IGROV-1, 48 h, read-out: Activity
UO-31 [8] = experiment: Growth inhibition of human UO31 cells assessed as cell growth at 5X10'-8 M after 48 hrs by sulforhodamine B assay; details: UO-31, 48 h, read-out: Activity
SK-MEL-2 = experiment: Growth inhibition of human SK-MEL-2 cells assessed as cell growth at 5X10'-6 M after 48 hrs by sulforhodamine B assay; details: SK-MEL-2, 48 h, read-out: Activity
MDA-MB-435 [9] = experiment: Growth inhibition of human MDA-MB-435 cells assessed as cell growth at 5X10'-6 M after 48 hrs by sulforhodamine B assay; details: MDA-MB-435, 48 h, read-out: Activity
MDA-MB-435 [10] = experiment: Growth inhibition of human MDA-MB-435 cells assessed as cell growth at 5X10'-7 M after 48 hrs by sulforhodamine B assay; details: MDA-MB-435, 48 h, read-out: Activity
NCI-H522 = experiment: Growth inhibition of human NCI-H522 cells assessed as cell growth at 5X10'-5 M after 48 hrs by sulforhodamine B assay; details: NCI-H522, 48 h, read-out: Activity
PC-3 [11] = experiment: Growth inhibition of human PC3 cells assessed as cell growth at 5X10'-6 M after 48 hrs by sulforhodamine B assay; details: PC-3, 48 h, read-out: Activity
[12] = Growth inhibition of human NCI-ADR-RES cells assessed as cell growth at 5X10'-5 M after 48 hrs by sulforhodamine B assay; details: read-out: Activity
MDA-MB-435 [13] = experiment: Growth inhibition of human MDA-MB-435 cells assessed as cell growth at 5X10'-8 M after 48 hrs by sulforhodamine B assay; details: MDA-MB-435, 48 h, read-out: Activity
HOP-92 = experiment: Growth inhibition of human HOP92 cells assessed as cell growth at 5X10'-5 M after 48 hrs by sulforhodamine B assay; details: HOP-92, 48 h, read-out: Activity
HOP-62 = experiment: Growth inhibition of human HOP62 cells assessed as cell growth at 5X10'-8 M after 48 hrs by sulforhodamine B assay; details: HOP-62, 48 h, read-out: Activity
NCI-H23 = experiment: Growth inhibition of human NCI-H23 cells assessed as cell growth at 5X10'-5 M after 48 hrs by sulforhodamine B assay; details: NCI-H23, 48 h, read-out: Activity
T47D = experiment: Growth inhibition of human T47D cells assessed as cell growth at 5X10'-7 M after 48 hrs by sulforhodamine B assay; details: read-out: Activity
ACHN = experiment: Growth inhibition of human ACHN cells assessed as cell growth at 5X10'-9 M after 48 hrs by sulforhodamine B assay; details: read-out: Activity
SW-620 [14] = experiment: Growth inhibition of human SW620 cells assessed as cell growth at 5X10'-6 M after 48 hrs by sulforhodamine B assay; details: SW-620, 48 h, read-out: Activity
NCI-H460 = experiment: Growth inhibition of human NCI-H460 cells assessed as cell growth at 5X10'-7 M after 48 hrs by sulforhodamine B assay; details: NCI-H460, 48 h, read-out: Activity
MDA-MB-231 [15] = experiment: Growth inhibition of human MDA-MB-231 cells assessed as cell growth at 5X10'-7 M after 48 hrs by sulforhodamine B assay; details: MDA-MB-231, 48 h, read-out: Activity
NCI-H322M = experiment: Growth inhibition of human NCI-H322M cells assessed as cell growth at 5X10'-9 M after 48 hrs by sulforhodamine B assay; details: read-out: Activity
SF-268 = experiment: Growth inhibition of human SF268 cells assessed as cell growth at 5X10'-7 M after 48 hrs by sulforhodamine B assay; details: SF-268, 48 h, read-out: Activity
[16] = Growth inhibition of human Hs 578T cells assessed as cell growth at 5X10'-7 M after 48 hrs by sulforhodamine B assay; details: read-out: Activity
DU-145 = experiment: Growth inhibition of human DU145 cells assessed as cell growth at 5X10'-8 M after 48 hrs by sulforhodamine B assay; details: DU-145, 48 h, read-out: Activity
CCRF-CEM = experiment: Growth inhibition of human CCRF-CEM cells assessed as cell growth at 5X10'-5 M after 48 hrs by sulforhodamine B assay; details: read-out: Activity
PC-3 [17] = experiment: Growth inhibition of human PC3 cells assessed as cell growth at 5X10'-8 M after 48 hrs by sulforhodamine B assay; details: PC-3, 48 h, read-out: Activity

SMILES	growth at 0.05 µM (UACC-257) [%]	growth at 0.005 µM (HCT-15) [%]	growth at 0.05 µM (LOX IMVI [1]) [%]	growth at 0.05 µM (COLO 205) [%]	growth at 0.005 µM (SW-620 [2]) [%]	growth at 0.005 µM (A498) [%]	growth at 0.005 µM (SK-MEL-5) [%]	growth at 0.5 µM (LOX IMVI [3]) [%]	growth at 0.05 µM (RXF 393) [%]	growth at 0.5 µM (UO-31 [4]) [%]	growth at 0.005 µM (MDA-MB-435 [5]) [%]	growth at 0.005 µM (UO-31 [6]) [%]	growth at 0.05 µM (HCT-116) [%]	growth at 0.005 µM (MDA-MB-231 [7]) [%]	growth at 0.5 µM (IGROV-1) [%]	growth at 0.05 µM (UO-31 [8]) [%]	growth at 5 µM (SK-MEL-2) [%]	growth at 5 µM (MDA-MB-435 [9]) [%]	growth at 0.5 µM (MDA-MB-435 [10]) [%]	growth at 50 µM (NCI-H522) [%]	other results
COc1cc(-c2nn(-c3cccc(NC(=O)Nc4cc(C(F)(F)F)cc(C(F)(F)F)c4)c3)cc2-c2ccncc2)ccc1Cl	98	97	105	102	98	90	99	84	92	62	98	90	106	101	76	94	-73	-57	85	-65	growth at 5 µM (PC-3 [11]): -20%; growth at 50 µM [12]: -16%; growth at 0.05 µM (MDA-MB-435 [13]): 98%; growth at 50 µM (HOP-92): -72%; growth at 0.05 µM (HOP-62): 95%; growth at 50 µM (NCI-H23): -59%; growth at 0.5 µM (T47D): 89%; growth at 0.005 µM (ACHN): 104%; growth at 5 µM (SW-620 [14]): -51%; growth at 0.5 µM (NCI-H460): 55%; growth at 0.5 µM (MDA-MB-231 [15]): 69%; growth at 0.005 µM (NCI-H322M): 97%; growth at 0.5 µM (SF-268): 87%; growth at 0.5 µM [16]: 79%; growth at 0.05 µM (DU-145): 111%; growth at 50 µM (CCRF-CEM): -8%; growth at 0.05 µM (PC-3 [17]): 90%
COc1cc(-c2nn(-c3cccc(NC(=O)Nc4ccc(Cl)c(Cl)c4)c3)cc2-c2ccncc2)ccc1Cl	88	95	101	112	97	87	98	82	94	65	97	88	107	92	90	88	-52	-39	84	-26	growth at 5 µM (PC-3 [11]): -17%; growth at 50 µM [12]: -9%; growth at 0.05 µM (MDA-MB-435 [13]): 97%; growth at 50 µM (HOP-92): -39%; growth at 0.05 µM (HOP-62): 97%; growth at 50 µM (NCI-H23): -9%; growth at 0.5 µM (T47D): 84%; growth at 0.005 µM (ACHN): 99%; growth at 5 µM (SW-620 [14]): 11%; growth at 0.5 µM (NCI-H460): 74%; growth at 0.5 µM (MDA-MB-231 [15]): 66%; growth at 0.005 µM (NCI-H322M): 104%; growth at 0.5 µM (SF-268): 89%; growth at 0.5 µM [16]: 83%; growth at 0.05 µM (DU-145): 110%; growth at 50 µM (CCRF-CEM): 2%; growth at 0.05 µM (PC-3 [17]): 95%
